pKi: −log10 of the molar value. Like-named read-outs stand apart in the source and are kept apart here.
Assays:
[1] = system: maximal electroshock-induced seizures (MES); experiment: Maximum electroshock seizure test (MES), anticonvulsant evaluation; assay type: in vivo; details: Mus musculus, mice
Source text: The compounds of the present invention may be tested for in vivo anticonvulsant activity after i.v., p.o. or i.p. injection using a number of anticonvulsant tests in mice, including the maximum electroshock seizure test (MES). Maximum electroshock seizures were induced in male NSA mice weighing between 15-20 g and male Sprague-Dawley rats weighing between 200-225 g by application of current (50 mA, 60 pulses/sec, 0.8 msec pulse width, 1 sec duration, D.C., mice; 99 mA, 125 pulses/sec, 0.8 msec pulse width, 2 sec duration, D.C., rats) using a Ugo Basile ECT device (Model 7801). Mice were restrained by gripping the loose skin on their dorsal surface and saline-coated corneal electrodes were held lightly against the two corneae. Rats were allowed free movement on the bench top and ear-clip electrodes were used. […] A tonic seizure was defined as a hindlimb extension in excess of 90 degrees from the plane of the body. Results were treated in a quantal manner.
The ability of 4-[4-(4-fluorophenoxy)phenyl]-pyrimidine-2-carboxamide to block maximal electroshock-induced seizures (MES) was determined according to the method above.
4-[4-(4-Fluorophenoxy)phenyl]-pyrimidine-2-carboxamide was administered p.o. to mice 30 minutes before the test procedure.
The following compounds on Table 1 were tested accordingly after a p.o. administration and also after an i.v. injection. The compounds were injected i.v. 15 minutes before the test procedure.

[2] = target: rBIIA isoform of Na+ channels (Rattus norvegicus, UniProt P04775); experiment: Electrophysiological Assay 1: patch-clamp of voltage-sensitive Na+ currents in HEK-293 cells; assay type: cell-based; details: HEK-293 cells stably expressing rBIIA; for pKi: apparent antagonist dissociation constant for inactivated sodium channels
Description: Cell preparation: HEK-293 (NaIIA-B2) cell line stably expressing the rBIIA isoform of Na^+ channels was established in-house. The cells were cultured using standard techniques, as described previously (Verdoom, T. A, et al., Neuron 4:919-928 (1990)). For electrophysiology, cells were plated onto poly-D-lysine pre-coated Cellware 35 mm Petri dishes (BIOCOAT, Becton Dickinson) at a density of ˜10^4 cells/dish on the day of re-seeding from confluent cultures. Our experience has been that cells are suitable for recordings for 2-3 days after plating.
Patch-clamp recordings of voltage-sensitive Na^+ currents: Whole-cell voltage-clamp recordings were made using conventional patch-clamp techniques (Hamill et al., Pfluegers Arch. 391:85-100 (1981)) with an Axopatch 200A amplifier (Axon Instruments, Foster City, Calif.). The recording chamber was continuously superfused with the external solution (150 mM NaCl, 5.4 mM KCl, 1.8 mM CaCl2, 1 mM MgCl2, 10 mM HEPES, 10 mM glucose, pH 7.4 adjusted with NaOH, osmolality ˜320 mmol/kg) at a speed of about 1 mL/min. Recording pipettes were pulled from the thick-walled capillaries (WPI, Sarasota, Fla.) and fire-polished. The pipette resistances ranged from 1 to 3 MΩ when the pipettes were filled with internal solution containing (in mM): 130 CsF, 20 NaCl, 2 MgCl2, 10 EGTA, 10 HEPES, pH adjusted to 7.4 with CsOH, osmolality ˜310 mmol/kg. Drugs and intervening wash-outs were applied through a linear array of flow pipes (Drummond Microcaps, 2 μL, 64-mm length). Compounds are dissolved in dimethylsulfoxide (DMSO) to make a 30 mM stock solution, which was subsequently diluted into the external solution to give final concentrations of 0.1-100 μM. At the highest (1%) concentration, DMSO inhibited the size of Na^+ current only slightly. Currents were recorded at room temperature (22-25° C.), filtered at 3 kHz with an active 8-pole Bessel filter (Frequency Devices, Haverhill, Mass.), digitized at 10-50 μs intervals, and stored using Digidata 1200 analog/digital interface with Pclamp6/Clampex software (Axon Instruments). Series resistance was cancelled typically by ˜75% when necessary.
The following voltage pulse protocols A, B, C, and D were used to assess the potency and kinetics of inhibition of the Na^+ channels by the compounds (FIGS. 1A-1D).
Current-voltage relationship (IV-curve), protocol A (FIG. 1A), was used to report the voltage at which the maximal inward Na^+ current is achieved. This voltage was used throughout the experiment as testing voltage, Vt. The steady-state inactivation (or, availability) curve, protocol C (FIG. 1C), was used to get the voltage at which almost complete (≧95%) inactivation of Na^+ channels occurs; it served as voltage for conditioning prepulse, Vc, throughout the experiment. Protocol B (FIG. 1B) reports how fast the channels recover from inactivation at hyperpolarized voltages. This permitted us to set up the duration of the hyperpolarization gap which is used in measurement of the kinetics of binding of compounds to inactivated Na^+ channels (protocol D (FIG. 1D)). Channel repriming under control conditions was fast (≧90% recovery during first 5-10 ms). If a drug substantially retards the repriming process then it becomes possible (protocol D) to accurately measure the kinetics of binding of the inhibitor to inactivated channels as well as the steady-state affinity (k+ and Ki). To estimate k+ values the reduction in peak currents in successive trials with varying pre-pulse duration was plotted as a function of pre-pulse duration and the time constant (τ) measured by mono-exponential fit. A plot of 1/τ as a function of antagonist concentration then allowed calculating of the macroscopic binding rates of the antagonists. […]

[3] = system: Chung model of neuropathic pain (tactile allodynia); experiment: Chung model of neuropathic pain, tactile antiallodynia effect; assay type: in vivo; details: rats, p.o.
Source text: The compounds may be tested for their potential for the treatment of chronic pain (antiallodynic and antihyperalgesic activities) in the Chung model of peripheral neuropathy. Male Sprague-Dawley rats weighing between 200-225 g were anesthetized with halothane (1-3% in a mixture of 70% air and 30% oxygen) and their body temperature controlled during anesthesia through use of a homeothermic blanket. A 2-cm dorsal midline incision was then made at the L5 and L6 level and the para-vertibral muscle groups retracted bilaterally. L5 and L6 spinal nerves were then be exposed, isolated, and tightly ligated with 6-0 silk suture. A sham operation was performed exposing the contralateral L5 and L6 spinal nerves as a negative control.
Tactile Allodynia: Rats were transferred to an elevated testing cage with a wire mesh floor and allowed to acclimate for five to ten minutes. A series of Semmes-Weinstein monofilaments were applied to the plantar surface of the hindpaw to determine the animal's withdrawal threshold. […] This procedure was repeated with subsequent lesser filaments until there was no response and the lightest filament that elicited a response was recorded. […] For each animal, three measurements were made at every time point to produce an average withdrawal threshold determination. Tests were performed prior to and at 1, 2, 4 and 24 hours post drug administration. Tactile allodynia and mechanical hyperalgesia tests were conducted concurrently.
The tactile antiallodynia effect of the compounds listed in Table 4 was tested in the Chung model of neuropathic pain in rats as described above and described by Kim and Chung (Pain 50:355-363 (1992)). […]

[4] = iv, i.v. injection 15 minutes before the test, read-out: MES i.v. ED50
[5] = po, p.o., 30 minutes before the test, ED50 = dose protecting 50% of animals, read-out: MES p.o. ED50

Compound	ED50 [1, 4]	ED50 [1, 5]	pKi [2]	MED (minimal effective dose) [3]	inhibition of voltage-gated sodium currents [2]	melting point
NC(=O)c1ccnc(-c2ccc(Oc3ccc(F)cc3)cc2)n1 [2-[4-(4-Fluorophenoxy)phenyl]pyrimidine-4-carboxamide]	2.5 mg/kg	7.5 mg/kg	7.00	2.50 Mg/kg		
NC(=O)c1nccc(-c2ccc(Oc3ccc(F)cc3)cc2)n1 [4-[4-(4-Fluorophenoxy)phenyl]-pyrimidine-2-carboxamide]	0.7 mg/kg	1.6 mg/kg	6.31		dose-dependent inhibition	
NC(=O)c1ccnc(-c2ccc(Oc3ccc(Cl)cc3F)cc2)n1 [2-[4-(4-Chloro-2-fluorophenoxy)phenyl]pyrimidine-4-carboxamide]	2.3 mg/kg	5.7 mg/kg	6.66	1.25 Mg/kg		
NC(=O)c1nc(-c2ccc(Oc3ccccc3)cc2)c(N)nc1N [3,5-Diamino-6-(4-phenoxyphenyl)pyrazine-2-carboxamide]			5.66			
CC(C)(C)NC(=O)c1nccc(-c2ccc(Oc3ccc(F)cc3)cc2)n1 [4-[4-(4-Fluorophenoxy)phenyl]-pyrimidine-2-carboxylic acid tert-butylamide]			6.74			
NC(=O)c1nccc(-c2ccc(Oc3ccc(C(F)(F)F)cc3)cc2)n1 [4-[4-(4-Trifluoromethylphenoxy)phenyl]-pyrimidine-2-carboxamide]	0.5 mg/kg	2.5 mg/kg	6.68			
CN(C)C(=O)c1nccc(-c2ccc(Oc3ccc(F)cc3)cc2)n1 [4-[4-(4-Fluorophenoxy)phenyl]-pyrimidine-2-carboxylic acid dimethylamide]			4.87			
NC(=O)c1nccc(-c2ccc(Oc3ccc(F)cc3F)cc2)n1 [4-[4-(2,4-Difluorophenoxy)phenyl]-pyrimidine-2-carboxamide]	0.9 mg/kg	1.4 mg/kg	6.44			
Fc1ccc(Oc2ccc(-c3nccc(-c4nc[nH]n4)n3)cc2)cc1 [2-[4-(4-fluorophenoxy)phenyl]-4-[3-(1,2,4-triazolyl)]pyrimidine]			4.70			
NC(=O)c1cccc(-c2ccc(Oc3ccc(F)cc3)cc2)n1 [6-[4-(4-Fluorophenoxy)phenyl]pyridine-2-carboxamide]	1.2 mg/kg	3.3 mg/kg	7.15	2.50 Mg/kg		
NC(=O)c1cccc(-c2ccc(Oc3ccccc3)cc2)n1 [6-(4-Phenoxyphenyl)pyridine-2-carboxamide]	3.2 mg/kg	10.5 mg/kg				178 to 180 °C
O=C(O)c1nccc(-c2ccc(Oc3ccc(F)cc3)cc2)n1 [4-[4-(4-Fluorophenoxy)phenyl]-pyrimidine-2-carboxylic acid]			4.29			

From patent publication US6867210B2, “Aryl substituted pyrimidines” (Euro-Celtique S.A., priority 2000, dated 2005)
